Experiment: Hansen solubility parameters of the core solvents
Assay type: physicochemical
Text: The term “Hansen solubility parameter” refers to a solubility parameter approach proposed by Charles Hansen used to predict polymer solubility and was developed around the basis that the total energy of vaporization of a liquid consists of several individual parts. To calculate the “weighted Hansen solubility parameter” one must combine the effects of (atomic) dispersion forces, (molecular) permanent dipole-permanent dipole forces, and (molecular) hydrogen bonding (electron exchange). The “weighted Hansen solubility parameter” is calculated as (δD^2+δP^2+δH^2)^0.5, wherein δD is the Hansen dispersion value, δP is the Hansen polarizability value, and δH is the Hansen Hydrogen-bonding (“h-bonding”) value.

Row | δD (Hansen dispersion value) | δH (Hansen h-bonding value) | δP (Hansen polar (dipole-dipole) value) | Compound
1 | 16 | 2.7 | 2.1 | CCCCCCCCCCCCCC(=O)OC(C)C [isopropyl myristate]
2 | 16.4 | 9.6 | 5.7 | CC(=O)OCC(COC(C)=O)OC(C)=O [triacetin]

— patent publication US11491089B2, “Reloadable microcapsules” (International Flavors & Fragrances Inc., priority 2016, dated 2022)
